Source: US20110028717A1, “AZAINDOLE DERIVATIVE HAVING PGD2 RECEPTOR ANTAGONISTIC ACTIVITY” (priority 2005, published 2011)

The molecules below were run against T1, DP receptor (Homo sapiens, UniProt Q13258) (assay: Receptor binding assay, [3H]-PGD2, platelet membrane). Conditions: [3H]-PGD2, human platelet membrane.
T1 construct: endogenous in cells; host or cells: washed platelets from peripheral blood of a healthy volunteer
T1 sequence (Q13258 1-359): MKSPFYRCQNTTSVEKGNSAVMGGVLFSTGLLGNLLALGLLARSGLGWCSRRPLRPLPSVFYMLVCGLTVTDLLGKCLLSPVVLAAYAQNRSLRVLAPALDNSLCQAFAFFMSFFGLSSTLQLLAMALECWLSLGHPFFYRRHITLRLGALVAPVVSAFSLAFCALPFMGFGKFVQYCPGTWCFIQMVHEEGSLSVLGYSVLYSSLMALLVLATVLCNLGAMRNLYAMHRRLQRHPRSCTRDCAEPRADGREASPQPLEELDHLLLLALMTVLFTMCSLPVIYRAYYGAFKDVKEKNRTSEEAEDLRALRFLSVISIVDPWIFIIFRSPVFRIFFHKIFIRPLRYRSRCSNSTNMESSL
Experimental: A prepared WP was homogenated and a membrane fraction was collected with high-speed centrifugation. A compound of the present invention or a reference compound A (No. IC-73 in WO 2003/097598) was added to the plate and [^3H]-PGD2 was also added. A platelet membrane, a protein concentration is 2 mg/mL, was added and mixed in the plate, and placed on ice for 2 hours. The reaction solution was transferred to a low protein-adsorptive filter and washed with a wash solution eight times using a cell harvester. After the final washing, water was removed sufficiently, and micoscinti was added. DP inhibitory activity was investigated by measuring [^3H] by using Micro Beta.

| Structure (SMILES) | Ki [pM] |
| --- | --- |
| CC(C)Oc1ccc(S(=O)(=O)N2CCC(c3cn(CC(=O)O)c4nc(-c5ccc(F)cc5)ccc34)CC2)cc1 [Compound I-17] | 250 |
| CC(C)Oc1ccc(S(=O)(=O)N2CCC(c3cn(CC(=O)O)c4nc(NC(=O)OC(C)(C)C)ccc34)CC2)cc1 [Compound I-21] | 510 |
| CC(C)Oc1ccc(S(=O)(=O)N2CCC(c3cn(CC(=O)O)c4ncccc34)CC2)cc1 [Compound I-1] | 1000 |
| CC[C@@H](C)Oc1ccc(S(=O)(=O)N2CCC(c3cn(CC(=O)O)c4ncccc34)CC2)cc1 [Compound I-6] | 1000 |
| COc1ccc2c(C3CCN(S(=O)(=O)c4ccc(OC(C)C)cc4)CC3)cn(CC(=O)O)c2n1 [Compound I-14] | 610 |

Second part, the molecule after the results:

| Ki [pM] | Structure (SMILES) |
| --- | --- |
| 480 | CC(C)Oc1ccc(S(=O)(=O)N2CCC(c3cn(CC(=O)O)c4nc(-c5nccs5)ccc34)CC2)cc1 [Compound I-20] |
| 850 | CC(C)Oc1ccc(S(=O)(=O)N2CCC(c3cn(CC(=O)O)c4nc(Br)ccc34)CC2)cc1 [Compound I-13] |

What follows are molecules tested on Brown Norway (BN) Rats (assay: OVA asthma model of rat (hyperresponsive airway, infiltration of inflammatory cells, mucus secretion)). Conditions: 10 mg/kg p.o. once a day for three days, mucin in airway lavage fluid vs control group.
Type: in vivo
Experimental: Brown Norway (BN) Rats were sensitized by i.p. administration of 0.1 mg/mL of ovalbumin (OVA) and 1 mg of aluminum hydroxide gel. A solution of 1% OVA was aerosolized by ultrasonic nebulizer (NE-U 17) and the rats were subjected to inhalation exposure of the aerosol for 30 minutes in an exposing chamber 12, 19, 26 and 33 days after the sensitization. One hour before the 4th exposure of the antigen, compounds of the present invention were administered in a dose of 10 mg/kg p.o. once a day for three days consecutively. In a control group, 0.5% of methyl cellulose was administered in place of the compound of the present invention.
Under pentobarbital anesthesia (80 mg/kg, i.p.), acetylcholine (3.9, 7.8, 15.6, 31.3, 62.5, 125, 250 and 500 μg/kg) was injected to jugular vein of the rats successively from a lower dose at intervals of 5 minutes three days after the fourth exposure to the antigen, and immediate contractile reaction of airways (an increase of insufflation pressure) was measured by a modified method of Konnzett & Rössler. Inhibition rate of increased hyperresponsive airway against the control group was calculated based on area under curve (AUC) obtained from concentration-response curve of acetylcholine.
After the measurement of increased hyperresponsive airway was completed, bronchoalveoli of the rats were washed with 5 mL of saline three times. Total cell number in the washings was counted by a hemacytometer under light microscope, and inhibition rates of infiltration of inflammatory cells against the control group were calculated. Further, muchin in the airway lavage fluid was measured by ELIZA method using jacalin, a muchin-binding lectin, and the inhibition rates of mucus-secretion against the control group were calculated.

| Structure (SMILES) | inhibition rate (%) mucus-secretion [%] |
| --- | --- |
| CC(C)Oc1ccc(S(=O)(=O)N2CCC(c3cn(CC(=O)O)c4ncccc34)CC2)cc1 [Compound I-1] | 68 |
| CC[C@@H](C)Oc1ccc(S(=O)(=O)N2CCC(c3cn(CC(=O)O)c4ncccc34)CC2)cc1 [Compound I-6] | 77 |
| COc1ccc2c(C3CCN(S(=O)(=O)c4ccc(OC(C)C)cc4)CC3)cn(CC(=O)O)c2n1 [Compound I-14] | 88 |
| CC(C)Oc1ccc(S(=O)(=O)N2CCC(c3cn(CC(=O)O)c4nc(Br)ccc34)CC2)cc1 [Compound I-13] | 44 |

Same assay, conditions: 10 mg/kg p.o. once a day for three days, total cell number in bronchoalveolar washings vs control group

| Structure (SMILES) | inhibition rate (%) infiltration of inflammatory cells [%] |
| --- | --- |
| CC(C)Oc1ccc(S(=O)(=O)N2CCC(c3cn(CC(=O)O)c4ncccc34)CC2)cc1 [Compound I-1] | 63 |
| CC[C@@H](C)Oc1ccc(S(=O)(=O)N2CCC(c3cn(CC(=O)O)c4ncccc34)CC2)cc1 [Compound I-6] | 60 |
| COc1ccc2c(C3CCN(S(=O)(=O)c4ccc(OC(C)C)cc4)CC3)cn(CC(=O)O)c2n1 [Compound I-14] | 68 |
| CC(C)Oc1ccc(S(=O)(=O)N2CCC(c3cn(CC(=O)O)c4nc(Br)ccc34)CC2)cc1 [Compound I-13] | 62 |

Same assay, conditions: 10 mg/kg p.o. once a day for three days, vs control group, AUC of acetylcholine response

| Structure (SMILES) | inhibition rate (%) increased hyperresponsive airway [%] |
| --- | --- |
| CC(C)Oc1ccc(S(=O)(=O)N2CCC(c3cn(CC(=O)O)c4ncccc34)CC2)cc1 [Compound I-1] | 55 |
| CC[C@@H](C)Oc1ccc(S(=O)(=O)N2CCC(c3cn(CC(=O)O)c4ncccc34)CC2)cc1 [Compound I-6] | 69 |
| COc1ccc2c(C3CCN(S(=O)(=O)c4ccc(OC(C)C)cc4)CC3)cn(CC(=O)O)c2n1 [Compound I-14] | 84 |
| CC(C)Oc1ccc(S(=O)(=O)N2CCC(c3cn(CC(=O)O)c4nc(Br)ccc34)CC2)cc1 [Compound I-13] | 58 |

What follows are molecules tested against T1, DP receptor (assay: cAMP assay with washed platelets (PGD2-stimulated cAMP, HTRF)). Conditions: 100 nM PGD2, cAMP by HTRF, read-out: IC50 (50% DP-inhibitory concentration in the cAMP assay).
Type: cell-based
Experimental: 30 ml of peripheral blood was collected from a healthy volunteer using a syringe containing one ninth amount of 3.8% sodium citrate for diagnosis. After being centrifuged at 180 g for 10 minutes at room temperature, a supernatant was collected and used as Platelet Rich Plasma (PRP). The resulting PRP was washed with wash buffer and centrifuged three times (Washed Platelet: WP) and platelets were counted by a microcell counter. WP was added to a plate in amount of 1.5×10^8/assay and the plate was treated with 3-isobutyl-1-methylxanthin (IBMX; 0.5 mM) for 5 minutes. A reaction was initiated by adding 100 nM of PGD2 5 min after an addition of a test compound. The reaction was terminated with an addition of 1N hydrochloric acid after 2 minutes and the cells were destructed using 12% triton X-100. An amount of cAMP in the supernatant was assayed by Homogeneous […] (HTRF)

| Structure (SMILES) | IC50 [pM] |
| --- | --- |
| CC(C)Oc1ccc(S(=O)(=O)N2CCC(c3cn(CC(=O)O)c4nc(-c5ccc(F)cc5)ccc34)CC2)cc1 [Compound I-17] | 880 |
| CC(C)Oc1ccc(S(=O)(=O)N2CCC(c3cn(CC(=O)O)c4nc(NC(=O)OC(C)(C)C)ccc34)CC2)cc1 [Compound I-21] | 1900 |
| CC(C)Oc1ccc(S(=O)(=O)N2CCC(c3cn(CC(=O)O)c4ncccc34)CC2)cc1 [Compound I-1] | 580 |
| CC(C)Oc1ccc(S(=O)(=O)N2CCC(c3cn(CC(=O)O)c4nc(OCc5ccccc5)ccc34)CC2)cc1 [Compound I-31] | 1700 |
| CCOc1ccc2c(C3CCN(S(=O)(=O)c4ccc(OC(C)C)cc4)CC3)cn(CC(=O)O)c2n1 [Compound I-29] | 1500 |
| CC[C@@H](C)Oc1ccc(S(=O)(=O)N2CCC(c3cn(CC(=O)O)c4ncccc34)CC2)cc1 [Compound I-6] | 930 |
| COc1ccc2c(C3CCN(S(=O)(=O)c4ccc(OC(C)C)cc4)CC3)cn(CC(=O)O)c2n1 [Compound I-14] | 330 |

Results, then the molecule that gave them:

| IC50 [pM] | Structure (SMILES) |
| --- | --- |
| 2200 | CC(C)Oc1ccc(S(=O)(=O)N2CCC(c3cn(CC(=O)O)c4nc(-c5ccccn5)ccc34)CC2)cc1 [Compound I-19] |
| 640 | CC(C)Oc1ccc(S(=O)(=O)N2CCC(c3cn(CC(=O)O)c4nc(-c5ccccc5)ccc34)CC2)cc1 [Compound I-16] |
| 1100 | CC(C)Oc1ccc(S(=O)(=O)N2CCC(c3cn(CC(=O)O)c4nc(-c5ccoc5)ccc34)CC2)cc1 [Compound I-25] |
| 640 | CC(C)Oc1ccc(S(=O)(=O)N2CCC(c3cn(CC(=O)O)c4nc(-c5nccs5)ccc34)CC2)cc1 [Compound I-20] |
| 1700 | CC(C)Oc1ccc(S(=O)(=O)N2CCC(c3cn(CC(=O)O)c4nc(-c5ccco5)ccc34)CC2)cc1 [Compound I-26] |
| 510 | CC(C)Oc1ccc(S(=O)(=O)N2CCC(c3cn(CC(=O)O)c4nc(Br)ccc34)CC2)cc1 [Compound I-13] |
